Assay results reported in patent US20240199555A1, “APPLICATIONS OF BIASED LIGANDS OF THE SEROTONIN 5-HT7 RECEPTOR FOR THE TREATMENT OF PAIN, MULTIPLE SCLEROSIS AND THE CONTROL OF THERMOREGULATION” (Centre National de la Recherche Scientifique, priority 2021, published 2024).
Like-named read-outs stand apart in the source and are kept apart here.

Assays:
[1] = molecular target: human 5-HT7a receptor (Homo sapiens (Human), UniProt P34969); test: Radioligand binding competition, filtration binding assay, 5-HT7a; conditions: affinity on 5-HT7 receptor, table of new compounds
Chain of human 5-HT7a receptor (P34969 other isoform, or with tags, fused parts or gaps): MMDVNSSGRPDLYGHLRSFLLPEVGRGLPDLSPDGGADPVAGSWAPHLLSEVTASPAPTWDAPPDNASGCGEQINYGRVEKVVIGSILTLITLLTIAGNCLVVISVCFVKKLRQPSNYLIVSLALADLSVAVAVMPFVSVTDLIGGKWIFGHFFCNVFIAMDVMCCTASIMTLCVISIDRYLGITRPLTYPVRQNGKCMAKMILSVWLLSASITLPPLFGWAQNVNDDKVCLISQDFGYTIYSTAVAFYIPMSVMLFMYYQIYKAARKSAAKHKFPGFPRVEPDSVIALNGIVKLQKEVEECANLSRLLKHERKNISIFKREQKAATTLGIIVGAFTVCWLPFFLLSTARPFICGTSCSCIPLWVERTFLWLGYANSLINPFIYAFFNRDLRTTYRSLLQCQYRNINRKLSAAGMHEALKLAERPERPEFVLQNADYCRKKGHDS

[2] = molecular target: h5-HT7R (Homo sapiens (Human), UniProt P34969); test: cAMP accumulation (LANCE cAMP detection kit) in HEK-293 cells stably expressing h5-HT7R; type: cell-based
Chain of h5-HT7R (P34969 1-432): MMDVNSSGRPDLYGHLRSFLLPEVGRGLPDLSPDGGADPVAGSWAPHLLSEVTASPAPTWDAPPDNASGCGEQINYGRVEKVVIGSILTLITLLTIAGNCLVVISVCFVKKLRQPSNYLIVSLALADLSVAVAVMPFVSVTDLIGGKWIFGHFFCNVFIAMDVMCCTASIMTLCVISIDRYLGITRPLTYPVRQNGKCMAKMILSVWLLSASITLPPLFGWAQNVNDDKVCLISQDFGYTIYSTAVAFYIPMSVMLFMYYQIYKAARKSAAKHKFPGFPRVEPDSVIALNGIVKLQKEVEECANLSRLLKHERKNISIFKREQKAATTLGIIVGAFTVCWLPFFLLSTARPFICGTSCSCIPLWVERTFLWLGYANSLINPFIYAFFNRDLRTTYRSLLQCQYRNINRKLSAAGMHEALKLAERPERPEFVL
Method: (B) HEK-293 cells stably expressing h5-HT7R were stimulated with 10 nM of 5-CT and increasing concentrations of products for one hour. After cell lysis, cAMP production was quantified by a LANCE cAMP detection kit (Perkin Elmer). […] Data points represent the means±SEM from three independent experiments performed in triplicate. The EC50 and IC50 for each drug was determined using GraphPad Prism software.
cAMP accumulation was measured with a LANCE™ cAMP detection kit (Perkin-Elmer Life Sciences, Boston, MA, USA). 12 h before experiment cells were starved. Forty-eight h after transfection, cells were harvested in Hank's balanced salt solution (HBSS) containing 5 mM HEPES, 1 mM isobutylmethylxanthine (IBMX) and 0.1% BSA, PH 7.4. After centrifugation (1000×g, 5 min), cells were resuspended in the same buffer (2×10^6 per ml). The ALEXA™ fluor 647 anti-cAMP antibody solution (1 μl) was added to the cell suspension (100 μl) and 5 μl aliquots of the mixture were dispensed in white 384-well microtiter plates (Optiplate, Perkin Elmer). The cells were then stimulated with different drugs. After 1 h incubation at room temperature in the dark, lysis buffer (0.35% Triton X-100, 10 mM CaCl2, 50 mM HEPES) containing LANCE EU-W8044 labeled streptavidin and biotinylated-cAMP was added to the cells (10 μL per well). After 2 h incubation at room temperature in the dark, the plates were read on a VictorV™ microplate reader (Perkin-Elmer Life Sciences). Concentration/response curves were analyzed using Prism 4 software.
HEK-293 fibroblast stably expressing 5-HT7 receptor were used to compare the effect of different 5-HT7R ligands on the classical Gαs-mediated activation of AC pathway. It was decided to evaluate the lead compounds from two series of ligands, Serodolin and MOA-51 (FIG. 1A).

[3] = molecular target: human 5-HT2A receptor (Homo sapiens (Human), UniProt P28223); test: Radioligand binding competition, 5-HT2A; conditions: selectivity panel
Chain of human 5-HT2A receptor (P28223 whole entry): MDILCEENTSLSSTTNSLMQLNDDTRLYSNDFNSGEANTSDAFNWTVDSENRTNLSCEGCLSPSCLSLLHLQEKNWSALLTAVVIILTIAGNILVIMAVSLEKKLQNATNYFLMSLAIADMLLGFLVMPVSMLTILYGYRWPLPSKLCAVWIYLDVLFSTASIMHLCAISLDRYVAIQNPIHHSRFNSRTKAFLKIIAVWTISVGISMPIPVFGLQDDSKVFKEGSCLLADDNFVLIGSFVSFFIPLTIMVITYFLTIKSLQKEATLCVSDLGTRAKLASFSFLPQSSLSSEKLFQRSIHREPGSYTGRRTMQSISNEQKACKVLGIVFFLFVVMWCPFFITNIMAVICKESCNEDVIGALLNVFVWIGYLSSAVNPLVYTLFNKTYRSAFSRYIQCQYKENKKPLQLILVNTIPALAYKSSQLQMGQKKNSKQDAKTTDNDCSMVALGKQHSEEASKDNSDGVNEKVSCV
Method: FIG. 14: Testing of 8 molecules for radioligand binding competition activity on recombinant human 5-HT1A, 5-HT2A, 5-HT2Cedited, 5-HT6, 5-HT7 and D2(long) receptors using filtration binding assays.
Radioligand Binding experiments were conducted with Epics Therapeutics membrane preparations. Receptor accession numbers, cellular background and reference compounds are shown in this table.
The new compounds have been tested by radioligand binding competition activity at the human 5-HT1A (FAST-0500B), 5-HT2A (FAST-0505B), 5-HT2Cedited (FAST-0507B), 5-HT6 (FAST-0509B), 5-HT7a (FAST-05111B) and D2(long) (FAST-0101B) receptors at seven (7) concentrations, in duplicate. […] Reference values thus obtained for the test were compared to historical values obtained from the same receptor and used to validate the experimental session. For replicate determinations, the maximum variability tolerated in the test was of +/−20% around the average of the replicates.
Dose-response data from test compounds were analyzed with XLfit (IDBS) software using nonlinear regression applied to a sigmoidal dose-response model and the following equation: • XL Fit fit Model 203: 4 Parameter Logistic Model • A: Bottom • B: TOP • C: LogEC50 • D: Hill

[4] = test system: Sprague-Dawley male rats; test: Formalin induced inflammatory pain model; type: in vivo; conditions: single s.c., Serodolin 10 mg/kg, MOA51 1 mg/kg, morphine
Method: FIG. 18: Effect of a single administration of Serodolin (AIC01) or MOA51 in the formalin test in rats. Effect of a single subcutaneous administration of Serodolin (AIC01) or MOA51 in the formalin test in rats. In this test, Sprague-Dawley male rats received unilateral injection of a 2.5% formalin solution (50 μl) into the plantar aspect of the hindpaw on testing day (i.e. D0). Control group received Vehicle (20% DMSO/5% Tween 80/NaCl). Serodolin was subcutaneously (sc) administrated at 10 mg/kg and MOA51 at 1 mg/kg. Positive control animals were treated with morphine (3 mg/kg, sc). Paw licking time was measured. Results are expressed as mean±s.e.m. Percentage are expressed as decreased as compared to the vehicle-treated group and represented as figure (B). ***: p<0.001 as compared to the vehicle-treated group, Bonferroni's test after significant Two-way Repeated Measures ANOVA. NS: Non-significant.
Sprague-Dawley male rats (n=10 rats per group) received unilateral injection of a 2.5% formalin solution (50 μl) into the plantar aspect of the hindpaw on testing day (i.e. D0). Experience was separated into 4 groups of animals. Formalin animals+vehicle-treated group; […]—Formalin animals+Sponsor's Serodolin (10 mg/kg), s.c.—Formalin animals+Sponsor's MOA51 (1 mg/kg), s.c.—Formalin animals+internal validator-treated group (Morphine at 4 mg/Kg, s.c.). Single subcutaneous administration of the Vehicle and Sponsor's Compound 30 min (or other timing depending on Sponsor's design) before formalin injection on testing day (i.e. D0)/Subcutaneous administration of Morphine 30 min before formalin injection on testing day (i.e. D0). Hindpaw licking time recorded in consecutive 5 minutes periods from 0 to 5 minutes (early phase) and 17 to 27 minutes (late phase) after formalin injection.
We evaluated the effect of Serodolin as well as MOA51 in rats in the formalin test, an acute and tonic pain model based on the use of a chemical stimulus. Subcutaneous injection of formalin into the right hindpaw produces a biphasic painful response of increasing and decreasing intensity for about 30 minutes after the injection. […] Although not significant, Serodolin, MOA51 and morphine have an inhibitory effect (−40%, −35% and −57% respectively) during the early phase.

O=c1[nH]c2ccccc2n1CN1CCN(c2ccc(F)cc2)CC1 [Serodolin]
IC50 [1]: 1.14 nM
Ki [1]: 0.8 nM
IC50 ([2]; 10 nM of 5-CT, one hour, read-out: IC50, decrease of the 5-CT induced cAMP accumulation (antagonist)): 5 ± 2 nM
inhibition of cAMP production when tested alone (inverse agonist effect) ([2]; tested alone): around 75%
IC50 ([2]; tested alone, read-out: IC50, inverse agonist effect on cAMP response): 14 nM
IC50 ([3]; read-out: RLB 5-HT2A IC50): 16.9 nM
Ki ([3]; read-out: RLB 5-HT2A Ki): 2.8 nM
inhibitory effect on paw licking, early phase ([4]; 0 to 5 minutes, not significant): −40%
inhibition of licking, late phase ([4]; 17 to 27 minutes): −80%
